Experimental findings from ChEMBL document CHEMBL1133402, “Irreversible inhibition of type I dehydroquinase by substrates for type II dehydroquinase” (Bioorg Med Chem Lett, 2000) are described below.

The source made the active and inactive calls. The calls are words filed in the database; no cut-off is given here.

Experiment [1] addresses T1, 3-dehydroquinate dehydratase (Escherichia coli K-12) (UniProt P05194).
T1 sequence (whole entry): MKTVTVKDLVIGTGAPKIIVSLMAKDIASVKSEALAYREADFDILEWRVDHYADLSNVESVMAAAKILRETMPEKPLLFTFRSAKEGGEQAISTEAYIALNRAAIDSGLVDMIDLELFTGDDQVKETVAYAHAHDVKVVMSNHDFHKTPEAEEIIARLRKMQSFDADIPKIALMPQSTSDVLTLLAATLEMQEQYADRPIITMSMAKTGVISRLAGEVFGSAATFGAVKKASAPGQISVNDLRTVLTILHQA
In words: Tested for inhibitory activity against type I dehydroquinase; active.

Experiment [2] has as its target T1, 3-dehydroquinate dehydratase (Escherichia coli K-12). In words: Tested for percent inactivation against dehydroquinase after 24 hr at 10 mM.
Experiment [3] addresses T2, 3-dehydroquinate dehydratase (Escherichia coli K-12, UniProt P05194).
T2 sequence (P05194 whole entry): T1 sequence (whole entry)
As to the kind of experiment: Tested for the binding affinity against dehydroquinase.

The target of experiment [4] is T1, 3-dehydroquinate dehydratase (Escherichia coli K-12). In words: kcat/Km value was determined.

On to `O=C(O)C1=C(Br)C(=O)[C@@H](O)[C@H](O)C1`, for which the outcome in experiment [1] was Active.

A word on the Ki: it is a measure of affinity in units of concentration, obtained from inhibition or displacement. Read a high Ki as a looser hold on the target. In turn, `O=C1C(O)C(O)CC(O)(C(=O)O)C1F` (centres undefined) came in with an Inactivation in experiment [2] of 45%. Also, in experiment [3], affinity was put at a Ki of 80 µM. Besides, the outcome in experiment [1] was Active. Further, the k cat/Km in experiment [4] came to 86000 M⁻¹ s⁻¹.

In experiment [2], `O=C1C(O)C(O)CC(O)(C(=O)O)C1Br` (centres undefined) gave an Inactivation of 70%. The molecule further gave a Ki in experiment [3] of 3700 µM. The outcome in experiment [1] was Active. In experiment [4], this molecule came in with a k cat/Km of 367000 M⁻¹ s⁻¹.
